Tests used:
NE [1] = experiment: Bone marrow NE activity after repeated dosing, Wistar rats; assay type: in vivo; details: for Reduction of NE activity vs vehicle / Change From Vehicle Control (%) NE: 7 days
Protocol: (§1) Briefly, animals were weighed and randomized into different treatment groups. In total, three different dosing levels of brensocatib were tested in each species and strain; each QD dosing level was equivalent to 1.5-times the matching daily BID dose. For BID dosing, the second daily dose was administered 8-h post the morning dose. C57BL/6 mice were dosed either BID or QD for 7 consecutive days at 0/0, 0.5/0.75, 2/3, and 20/30 mg/kg/day (BID/QD). BALB/c mice were dosed for 7 consecutive days at 0/0, 0.2/0.3, 2/3, and 20/30 mg/kg/day (BID/QD). SD rats were dosed for 9 consecutive days at 0/0, 0.2/0.3, 2/3, and 20/30 mg/kg/day (BID/QD). Wistar rats were dosed for 7 consecutive days at 0/0, 0.2/0.3, 2/3, and 20/30 mg/kg/day (BID/QD).
(§2) At the completion of the study, animals were sacrificed 16–24 h post their final dose. The hind limb bones (femurs and tibias) were collected at necropsy for bone marrow analysis of NSP activities by kinetic enzymatic assays ([Basso et al., 2022]). See section Quantification of Bone Marrow NSP Activities for details.
(§3) For the mice, each animal had the femurs and tibias of both hind limbs harvested. For the rat, the femur and tibia from a single hind limb per animal was harvested. Bones were kept on wet ice until processing for bone marrow collection. In brief, bone cutters were used to cut the epiphysis (knobby ends) off the long bones to expose the bone marrow filled cavity. Each bone cavity was then flushed with 5 mL/bone (mouse) or 10 mL/bone (rat) of ice-cold RPMI media through a […] and collected in a 50-mL conical tube. Cells were spun down at 2,500 × g at 4°C for 5 min and the supernatant was aspirated. After which, bone marrow cells were lysed with 1X red blood cell (RBC) lysis buffer (Abcam, ab204733) to eliminate contaminating RBCs and washed with PBS to remove any residual RBC lysis buffer. The resulting white blood cells (WBC) were subsequently lysed with 1% (v/v) Triton X-100 in PBS. Lysates were added to 96-well plates and stored at −80°C until NSP analyses.
(§4) Bone marrow lysates prepared as described above were diluted and plated onto 96-well assay plates to quantify NSP activities as described previously ([Basso et al., 2022]). Briefly, peptide substrates for NE (N-Methoxysuccinyl-Ala-Ala-Pro-Val-7-amido-4-methylcoumarin; Sigma; St. Louis, MO; Excitation/Emission at 350/450 nm), PR3 ((7-Methoxycoumarin-4-yl)acetyl-lysyl-(picolinoyl)-Tyr-Asp-Ala-Lys-Gly-Asp-N-3-(2-4-dinitrophenyl)-2-3-diaminopropyonyl-NH2); GenScript; Piscataway, NJ; Excitation/Emission at 340/430 nm), and CatG (N-Succinyl-Ala-Ala-Pro-Phe p nitroanilide; Sigma; Absorbance at 405 nm) were added at a final assay concentration of 100 μM, 40 μM, and 200 μM, respectively, and either fluorescence or absorbance was quantified using a Synergy microplate reader (BioTek; Winooski, VT). The specific NSP activity in each sample was calculated as the total activity minus the activity in the presence of a specific NSP inhibitor (if used), including elastase inhibitor (Abcam) for NE, sivelestat (Abcam) for PR3, and cathepsin G inhibitor I (Cayman Chemical; Ann Arbor, MI) for CatG. NSP concentrations were interpolated based on their activities relative to the standard curves created using active human NE protein (Sigma), active human PR3 protein (Sigma), and active human CatG protein (Sigma), respectively. Due to unavailability of commercial mouse and/or rat NE, PR3, and CatG proteins, the corresponding human proteins were used instead since their catalytic ability is considered to be conserved across species. A portion of each cell lysate sample was retained for protein quantification using a Pierce™ BCA Protein Assay Kit (Thermo Fisher). The NSP activities were normalized for the cell lysate protein concentrations.
(§5) The Pierce™ BCA Protein Assay Kit was used to measure the total protein of the samples after lysis to allow for subsequent normalization. […]

[2] = design: method as in Chalmers et al., 2020; details: Phase 2 trial in NCFBE (WILLOW, NCT03218917), compared to placebo; ref Chalmers et al., 2020; cited from earlier work
NE [3] = experiment: Bone marrow NE activity after repeated dosing, Sprague Dawley rats; assay type: in vivo; details: for Reduction of NE activity vs vehicle / Change From Vehicle Control (%) NE: 9 days
Protocol: as §1, §2, §3, §4, §5

PR3 = experiment: Bone marrow PR3 activity after repeated dosing, Wistar rats; assay type: in vivo; details: for Reduction of PR3 activity vs vehicle / Change From Vehicle Control (%) PR3: 7 days
Protocol: as §1, §2, §3, §4, §5

NSPs (NE, PR3, CatG) = experiment: PD onset study, bone marrow NSP activities (all three NSPs), C57BL/6 mice; assay type: in vivo; details: 5 mg/kg BID
Protocol: A 14-day PD onset study was performed in female C57BL/6 mice dosed BID. Mice were dosed by oral gavage either with vehicle (0 mg/kg) or 5 mg/kg brensocatib (BID; 10 mg/kg/day) for 1, 4, 7, 10, or 14 consecutive days. Plasma was collected from animals during the first 24 h of dosing at 1, 2, 8, 9, 10, and 24 h post the initial dose. Note the 8- and 24-h plasma samples were prior to the afternoon dose and the second day dose (if applicable), respectively. Plasma was used for PK analysis via LC-MS/MS. […]
Bone marrow lysates prepared as described above were diluted and plated onto 96-well assay plates to quantify NSP activities as described previously ([Basso et al., 2022]). Briefly, peptide substrates for NE (N-Methoxysuccinyl-Ala-Ala-Pro-Val-7-amido-4-methylcoumarin; Sigma; St. Louis, MO; Excitation/Emission at 350/450 nm), PR3 ((7-Methoxycoumarin-4-yl)acetyl-lysyl-(picolinoyl)-Tyr-Asp-Ala-Lys-Gly-Asp-N-3-(2-4-dinitrophenyl)-2-3-diaminopropyonyl-NH2); GenScript; Piscataway, NJ; Excitation/Emission at 340/430 nm), and CatG (N-Succinyl-Ala-Ala-Pro-Phe p nitroanilide; Sigma; Absorbance at 405 nm) were added at a final assay concentration of 100 μM, 40 μM, and 200 μM, respectively, and either fluorescence or absorbance was quantified using a Synergy microplate reader (BioTek; Winooski, VT). […]

CatG = experiment: Bone marrow CatG activity after repeated dosing, C57BL/6 mice; assay type: in vivo; details: for Reduction of CatG activity vs vehicle / Change From Vehicle Control (%) CatG: 7 days
Protocol: as §1, §2, §3, §4, §5

[4] = BID highest dose (20 mg/kg/day)
[5] = highest dose level 20/30 (BID/QD) mg/kg/day

Q: What does the source list for `Cn1c(=O)oc2ccc(-c3ccc(C[C@@H](C#N)NC(=O)[C@@H]4CNCCCO4)cc3)cc21` [brensocatib]?
A: Reduction of NE activity vs vehicle (NE [1]; [4]): 19%; Reduction of NE activity vs vehicle (NE [1]; QD highest dose (30 mg/kg/day)): 19%; Combined BID and QD percent reduction, NE (NE [1]; [5]): 19%; Change From Vehicle Control (%) NE (NE [1]; oral BID 0.2 mg/kg/day): −6% (p = 0.9661); Change From Vehicle Control (%) NE (NE [1]; oral BID 2 mg/kg/day): −6% (p = 0.9676); Change From Vehicle Control (%) NE (NE [1]; oral BID 20 mg/kg/day): −19% (p = 0.4767); Change From Vehicle Control (%) NE (NE [1]; oral QD 0.3 mg/kg/day): +8% (p = 0.9636); Change From Vehicle Control (%) NE (NE [1]; oral QD 3 mg/kg/day): +17% (p = 0.7823); Change From Vehicle Control (%) NE (NE [1]; oral QD 30 mg/kg/day): −19% (p = 0.7283); time to first exacerbation [2]: prolonged; Reduction of NE activity vs vehicle (NE [3]; [4]): 38%; Reduction of NE activity vs vehicle (NE [3]; QD highest dose (30 mg/kg/day)): 36%; Combined BID and QD percent reduction, NE (NE [3]; [5]): 37%; Change From Vehicle Control (%) NE (NE [3]; oral BID 0.2 mg/kg/day): +6% (p = 0.6846); Change From Vehicle Control (%) NE (NE [3]; oral BID 2 mg/kg/day): −18% (p = 0.0243); Change From Vehicle Control (%) NE (NE [3]; oral BID 20 mg/kg/day): −38% (p < 0.0001); Change From Vehicle Control (%) NE (NE [3]; oral QD 0.3 mg/kg/day): −2% (p = 0.9973); Change From Vehicle Control (%) NE (NE [3]; oral QD 3 mg/kg/day): −19% (p = 0.2196); Change From Vehicle Control (%) NE (NE [3]; oral QD 30 mg/kg/day): −36% (p = 0.0078); Reduction of PR3 activity vs vehicle (PR3; [4]): 46%; Reduction of PR3 activity vs vehicle (PR3; QD highest dose (30 mg/kg/day)): 59%; Combined BID and QD percent reduction, PR3 (PR3; [5]): 53%; Change From Vehicle Control (%) PR3 (PR3; oral BID 0.2 mg/kg/day): +10% (p = 0.9848); Change From Vehicle Control (%) PR3 (PR3; oral BID 2 mg/kg/day): +22% (p = 0.8768); Change From Vehicle Control (%) PR3 (PR3; oral BID 20 mg/kg/day): −46% (p = 0.4135); Change From Vehicle Control (%) PR3 (PR3; oral QD 0.3 mg/kg/day): +6% (p = 0.9963); Change From Vehicle Control (%) PR3 (PR3; oral QD 3 mg/kg/day): −35% (p = 0.5635); Change From Vehicle Control (%) PR3 (PR3; oral QD 30 mg/kg/day): −59% (p = 0.1437); Time to maximum reduction in NSP activities (observed) (NSPs (NE, PR3, CatG); visually observed): ~7 days; Time to maximum reduction in NSP activities (with modeling) (NSPs (NE, PR3, CatG); with modeling): ~8 days; Reduction of CatG activity vs vehicle (CatG; [4]): 94%; Reduction of CatG activity vs vehicle (CatG; QD highest dose (30 mg/kg/day)): 87%; Combined BID and QD percent reduction, CatG (CatG; [5]): 90%; Change From Vehicle Control (%) CatG (CatG; oral BID 0.5 mg/kg/day, 16 h post final dose): −16% (p = 0.1964); Change From Vehicle Control (%) CatG (CatG; oral BID 2 mg/kg/day, 16 h post final dose): −71% (p < 0.0001); Change From Vehicle Control (%) CatG (CatG; oral BID 20 mg/kg/day, 16 h post final dose): −94% (p < 0.0001); Change From Vehicle Control (%) CatG (CatG; oral QD 0.75 mg/kg/day, 24 h post final dose): −1% (p = 0.9999); Change From Vehicle Control (%) CatG (CatG; oral QD 3 mg/kg/day, 24 h post final dose): −64% (p < 0.0001); Change From Vehicle Control (%) CatG (CatG; oral QD 30 mg/kg/day, 24 h post final dose): −87% (p < 0.0001)
